Data from patent US9181294B2, “Nucleoside analogues for the treatment of a viral infection, and method for evaluating the sensitivity to said treatment” (priority 2011, dated 2015).
Read-outs that look alike come from different tables or passages of the source.

How the values were obtained:
[1] = system: pNL4-3 G140S-Q184H; assay: Resistance index on pNL4-3 virus modified by site-directed mutagenesis; type: cell-based, HIV-1; conditions: Table 1C; integrase-inhibitor-resistance mutant G140S-Q184H; ratio IC50 mutant / IC50 wild type
Description: (§1) The titres for a single cycle of the virus were determined in HeLa-P4 cells. The cells were infected, in duplicate, in 96-well plates, with the HIV-1 pNL-4.3 clone (equivalent to 3 ng of p24 antigen). The titres for a single cycle of the viruses were determined 48 hours after infection by quantifying the beta-galactosidase activity in P4 lysates by means of a colorimetric test (CPRG test) based on cleavage of chlorophenol red-beta-D-galactopyranoside (CPRG) by beta-galactosidase. The 50% inhibitory concentration (IC50) was determined as the concentration of compound A providing 50% inhibition of beta-galactosidase levels compared with the untreated infected cells.
(§2) Compound A according to the invention was tested on the pNL4-3 virus optionally modified by site-directed mutagenesis, comprising or not comprising (wt) the mutations located in the reverse transcriptase gene and associated with resistance to the main NRTIs used in clinical practice. Tables 1A to 1C below group together the resistance indices of compound A according to the invention on the viruses with and without mutation.
The resistance index of a mutant represents the ratio of the concentration of compound capable of inhibiting by half (IC50) the growth of the mutant virus tested, to the concentration of compound capable of inhibiting by half (IC50) the growth of the wild-type virus. […]

[2] = system: pNL4-3 Q184H; assay: as above; type: cell-based, HIV-1; conditions: Table 1C; integrase-inhibitor-resistance mutant Q184H; ratio IC50 mutant / IC50 wild type
[3] = system: HIV-1 pNL-4.3 clone (pNL4-3 wild type); assay: Antiviral test in HeLa-P4 cells (single cycle, CPRG beta-galactosidase test); type: cell-based
Description: HeLa-P4 cells are HeLa CD4 LTR-LacZ cells in which the expression of LacZ is induced by the trans-activating Tat protein of HIV, making it possible to precisely quantify the HIV-1 infectivity from a single replication cycle. HeLa-CD4 cells growing exponentially at a density of 1×10^4/ml are placed in 96-well plates and infected on the following day with 3 ng of HIV p24 antigen in the presence of various concentrations of compounds.
as §1
The antiviral activity of compound A according to the invention was evaluated using an amount of HIV corresponding to 3 ng of p24 antigen.
as §2
(§3) The resistance index of a mutant represents the ratio of the concentration of compound capable of inhibiting by half (IC50) the growth of the mutant virus tested, to the concentration of compound capable of inhibiting by half (IC50) the growth of the wild-type virus.

[4] = in vitro; type: cell-based; conditions: read-out: CC50 (50% cytotoxic concentration)
Description: A cell viability test measuring the absorbance at 560 and 690 nm using the yellow tetrazolium […] [3-(4,5-dimethyl-2-thiazolyl)-2,5-diphenyltetrazolium bromide] reagent was carried out with the tetrabenzoyladenosine in the HeLa-CD4, Vero, FH, MT2 and SupT1 cell lines.
Using various cell types (HeLa-CD4, Vero, FH, MT2 and SupT1), the CC50 (50% cytotoxic concentration) of compound A was measured at more than 100 μM in all cases.

[5] = system: Lai virus in MT2 cells, extracellular viral RNA; assay: Inhibition of viral RNA production in culture medium (Cobas TaqMan HIV-1 v2 test); type: cell-based
Description: (§4) The MT2 cells were concentrated at 15×10^6/ml and incubated for 2 h with 10 or 25 μM of compound A. The Lai virus is then added at a multiplicity of infection of 0.01 for 1 h. The cells are washed and then incubated in culture medium containing 10 or 25 μM of the compound to be tested. A sample of 1×10^6 cells is taken at various times and the viral DNA is quantified by means of a Taqman real-time PCR method. The viral RNA loads are quantified in the culture medium (Cobas AmpliPrep/Cobas TaqMan (CTM) HIV-1 v2 test).

[6] = system: LAI viruses in MT2 cells; assay: Antiviral test in MT2 cells (viral load on day 3); type: cell-based, HIV-1; conditions: Human immunodeficiency virus 1; MT2 cells infected with LAI viruses
Description: The MT2 cells were concentrated at 3×10^6/ml and infected with 10^7 viruses (LAI). The cells were distributed into 96-well plates (1×10^5/well) and incubated in the presence of various concentrations of compound A (in quadruplicate). The viral loads were determined on day 3 (Cobas AmpliPrep/Cobas TaqMan (CTM) HIV-1 v2 test).
Compound A was tested on MT2 cells infected with LAI viruses.

[7] = system: pNL4-3 T215Y; type: cell-based, HIV-1
Description: as §1, §2, §3
(§5) A resistance index greater than approximately 1.5 or 2 signifies that the viral strain is resistant to the treatment.

[8] = system: pNL4-3 K65R-M184V; type: cell-based, HIV-1
Description: as §1, §2, §3, §5

[9] = system: pNL4-3 M41L-L210W-T215Y; type: cell-based, HIV-1
Description: as §1, §2, §3, §5

[10] = system: pNL4-3 M184V; type: cell-based, HIV-1
Description: as §1, §2, §3, §5

[11] = system: pNL4-3 K65R; type: cell-based, HIV-1
Description: as §1, §2, §3, §5

[12] = system: pNL4-3 M184V-M41L-L210W-T215Y; type: cell-based, HIV-1
Description: as §1, §2, §3, §5

[13] = system: pNL4-3 E138K; type: cell-based, HIV-1
Description: as §1, §2, §3, §5

[14] = system: pNL4-3 K103N; type: cell-based, HIV-1
Description: as §1, §2, §3, §5

[15] = system: pNL4-3 N155H; type: cell-based, HIV-1
[16] = system: Lai virus in MT2 cells, intracellular viral DNA; assay: Inhibition of double-stranded proviral DNA production (Taqman real-time PCR); type: cell-based, HIV-1; conditions: 10 or 25 μM of compound, FIG. 2
Description: as §4

[17] = amount of HIV corresponding to 3 ng of p24 antigen

With `O=C(O[C@@H]1[C@H](OC(=O)c2ccccc2)[C@H](n2cnc3c(N(C(=O)c4ccccc4)C(=O)c4ccccc4)ncnc32)O[C@@H]1CO)c1ccccc1` (stereo in doubt) [compound A, N^6,N^6,O^2′,O^3′-tetrabenzoyladenosine] the Resistance index [1] was 0.99, the Resistance index [2] was 0.88 and the “Viral production (10 μM of compound)” value [3, 17] was 0%. For the same compound, the IC50 ([3]; Human immunodeficiency virus 1, HeLaP4, amount of HIV corresponding to 3 ng of p24 antigen, FIG. 1) was 1 to 2 µM, the Resistance index ([3]; {}) was 1 and the “Resistance index (fold change)” value ([3]; {}) was 1 fold change. It also gave a CC50 ([4]; African green monkey, Vero cells) greater than 100 µM, a CC50 ([4]; FH cells) greater than 100 µM and a CC50 ([4]; human, HeLa-CD4 cells) greater than 100 µM. The CC50 ([4]; human, MT2 cells) was greater than 100 µM, the CC50 ([4]; human, SupT1 cells) was greater than 100 µM and the “production of the extracellular viral RNA” value ([5]; 10 or 25 μM of compound, FIG. 3) was “inhibited”. For the same compound, the “inhibition of the viral load, comparison with AZT (zidovudine)” value ([5]; FIGS. 2 and 3) was “clear superiority”, the IC50 [6] was 1.6 µM and the “Resistance index (fold change)” value [7] was 0.41 fold change. For the same compound, the “Resistance index (fold change)” value [8] was 1.07 fold change, the “Resistance index (fold change)” value [9] was 0.38 fold change and the “Resistance index (fold change)” value [10] was 0.99 fold change. The “Resistance index (fold change)” value [11] was 0.92 fold change, the “Resistance index (fold change)” value [12] was 0.58 fold change and the Resistance index [13] was 0.89. For the same compound, the Resistance index [14] was 1, the Resistance index [15] was 1.04 and the “appearance of the intracellular viral DNA” value [16] was “inhibited”.

For `O=C(Nc1ncnc2c1ncn2[C@@H]1O[C@H](CO)[C@H](OC(=O)c2ccccc2)[C@@H]1OC(=O)c1ccccc1)c1ccccc1` [reference compound], the “Viral production (10 μM of compound)” value [3, 17] was 109%.
